Assay results reported in patent US4252808A, “β-Lactam antibacterial agents, their use in pharmaceutical compositions, the process for their preparation and intermediates for use in that process” (Beecham Group Limited, priority 1978, dated 1981).
In brackets after ≈: the same amount, converted by molar mass. Counter-ions that a name gives are not always drawn.

Experiments:
Format in all cases: cell-based
[1] = test system: P. mirabilis C 977; test: MIC, serial dilution in DST agar with 10% horse blood (Table 2); settings: Proteus mirabilis, C977, inoculum diluted 10^-4
Excerpt: (§1) *Serial dilution in DST agar containing 10% horse blood, inoculum 0.001 m
(§2) broth culture diluted 10^-2 for Grampositive and 10^-4 for
(§3) Gramnegative organisms.

[2] = test system: S. faecalis 1; test: as above; settings: Enterococcus faecalis, inoculum diluted 10^-2
Excerpt: as §1, §2, §3

[3] = test system: S. pyogenes CN 10; test: as above; settings: Streptococcus pyogenes, CN10, inoculum diluted 10^-2
Excerpt: as §1, §2, §3

[4] = test system: E. cloacae Nl; test: as above; settings: Enterobacter cloacae, inoculum diluted 10^-4
Excerpt: as §1, §2, §3

[5] = test system: S. aureues Russell; test: as above; settings: Staphylococcus aureus, inoculum diluted 10^-2
Excerpt: as §1, §2, §3

[6] = test system: K. aerogenes A; test: as above; settings: Klebsiella aerogenes, inoculum diluted 10^-4
Excerpt: as §1, §2, §3

[7] = test system: P. morganii 1580; test: as above; settings: Morganella morganii, inoculum diluted 10^-4
Excerpt: as §1, §2, §3

[8] = test system: P. rettgeri WM 16; test: as above; settings: Providencia rettgeri, WM16, inoculum diluted 10^-4
Excerpt: as §1, §2, §3

[9] = test system: E. coli 0111; test: as above; settings: Escherichia coli, inoculum diluted 10^-4
Excerpt: as §1, §2, §3

[10] = test system: S. pneumoniae CN 33; test: as above; settings: Streptococcus pneumoniae, CN33, inoculum diluted 10^-2
Excerpt: as §1, §2, §3

[11] = test system: B. subtilis; test: as above; settings: Bacillus subtilis, inoculum diluted 10^-2
Excerpt: as §1, §2, §3

[12] = test system: S. aureus 1517; test: as above; settings: Staphylococcus aureus, inoculum diluted 10^-2
Excerpt: as §1, §2, §3

[13] = test system: P. rettgeri; test: MIC, serial dilution in nutrient agar with 5% horse blood (Table 1); settings: Providencia rettgeri, inoculum 0.001 ml undiluted broth culture
Method: (§4) | *Serial dilution in nutrient agar containing 5% horse blood, inoculum | 0.001 ml undiluted broth culture.

[14] = test system: P. mirabilis C 977; test: as above; settings: Proteus mirabilis, C977, inoculum 0.001 ml undiluted broth culture
Method: as §4

[15] = test system: P. morganii; test: as above; settings: Morganella morganii, inoculum 0.001 ml undiluted broth culture
Method: as §4

[16] = test system: S. faecalis 1; test: as above; settings: Enterococcus faecalis, inoculum 0.001 ml undiluted broth culture
Method: as §4

[17] = test system: E. cloacae Nl; test: as above; settings: Enterobacter cloacae, inoculum 0.001 ml undiluted broth culture
Method: as §4

[18] = test system: S. aureus Russell; test: as above; settings: Staphylococcus aureus, inoculum 0.001 ml undiluted broth culture
Method: as §4

[19] = test system: K. aerogenes A; test: as above; settings: Klebsiella aerogenes, inoculum 0.001 ml undiluted broth culture
Method: as §4

[20] = test system: E. coli JT 4; test: as above; settings: Escherichia coli, JT4, inoculum 0.001 ml undiluted broth culture
Method: as §4

[21] = test system: S. aureus Oxford; test: as above; settings: Staphylococcus aureus, inoculum 0.001 ml undiluted broth culture
Method: as §4

[22] = test system: B. subtilis; test: as above; settings: Bacillus subtilis, inoculum 0.001 ml undiluted broth culture
Method: as §4

[23] = test system: S. aureus 1517; test: as above; settings: Staphylococcus aureus, inoculum 0.001 ml undiluted broth culture
Method: as §4

[24] = test system: S. aureus Oxford; test: MIC, serial dilution in DST agar with 10% horse blood (Table 2); settings: Staphylococcus aureus, inoculum diluted 10^-2
Excerpt: as §1, §2, §3

Row | MIC [13] | MIC [14] | MIC [15] | MIC [16] | MIC [17] | MIC [18] | MIC [19] | MIC [20] | Compound | MIC [1] | MIC [2] | MIC [3] | MIC [4] | MIC [5] | MIC [6] | MIC [7] | MIC [8] | MIC [9] | MIC [10] | MIC [11] | MIC [12] | further results
1 | – | – | – | – | – | – | – | – | CCSCC(=O)NC1C(=O)N2C(C(=O)O)=C(C)c3cnnn3C12 [Compound 48, (3aR,4S)-4,5-Dihydro-5-oxo-8-methyl-4-ethylthioacetamido 3aH-azeto[1,2a]v-triazolo[3,4c]pyrimidine-7-carboxylic acid] | 10 µg/mL (≈ 29.6 µM) | 25 µg/mL (≈ 74.1 µM) | 0.5 µg/mL (≈ 1.48 µM) | > 100 µg/mL | 5 µg/mL (≈ 14.8 µM) | 50 µg/mL (≈ 148 µM) | 25 µg/mL (≈ 74.1 µM) | > 100 µg/mL | 50 µg/mL (≈ 148 µM) | 1 µg/mL (≈ 2.96 µM) | 0.2 µg/mL (≈ 0.593 µM) | 25 µg/mL (≈ 74.1 µM) | –
2 | > 100 µg/mL | > 100 µg/mL | 100 µg/mL (≈ 271 µM) | > 100 µg/mL | > 100 µg/mL | > 100 µg/mL | > 100 µg/mL | > 100 µg/mL | CC1=C(C(=O)O)N2C(=O)[C@@H](NC(=O)[C@H](O)c3ccccc3)[C@H]2n2nncc21 [Compound 42, (3aR,4S) 4,5-Dihydro-5-oxo-8-methyl-4-D-mandelylamino-3aH-azeto[1,2-a]v-triazolo[3,4-c]pyrimidine-7-carboxylic acid] | – | – | – | – | – | – | – | – | – | – | – | – | MIC [21]: 25 µg/mL (≈ 67.7 µM); MIC [22]: 1 µg/mL (≈ 2.71 µM); MIC [23]: > 100 µg/mL
3 | – | – | – | – | – | – | – | – | CC1=C(C(=O)O)N2C(=O)[C@@H](NC(=O)C(F)(F)F)[C@H]2n2nncc21 [Compound 51, (3aR,4S)-4,5-Dihydro-5-oxo-8-methyl-4-trifluoroacetamido 3aH-azeto[1,2-a]v-triazolo[3,4-c]pyrimidine-7-carboxylic acid] | > 100 µg/mL | 100 µg/mL (≈ 302 µM) | 25 µg/mL (≈ 75.5 µM) | > 100 µg/mL | > 100 µg/mL | > 100 µg/mL | > 100 µg/mL | > 100 µg/mL | 100 µg/mL (≈ 302 µM) | 50 µg/mL (≈ 151 µM) | 5 µg/mL (≈ 15.1 µM) | > 100 µg/mL | MIC [24]: > 100 µg/mL
4 | > 100 µg/mL | > 100 µg/mL | > 100 µg/mL | > 100 µg/mL | > 100 µg/mL | > 100 µg/mL | > 100 µg/mL | > 100 µg/mL | CC1=C(C(=O)O)N2C(=O)[C@@H](NC(=O)[C@H](N)c3ccccc3)[C@H]2n2nncc21 [Compound 46, (3aR,4S)-4,5-Dihydro-5-oxo-8-methyl-4-D-α-phenylglycylamino-3aH-azeto[1,2-a]v-triazolo[3,4-c]pyrimidine-7-carboxylic acid trifluoroacetic acid salt] | – | – | – | – | – | – | – | – | – | – | – | – | MIC [21]: > 100 µg/mL; MIC [22]: 100 µg/mL; MIC [23]: > 100 µg/mL

Row | Compound | MIC [13] | MIC [14] | MIC [15] | MIC [16] | MIC [17] | MIC [18] | MIC [19] | MIC [20] | MIC [1] | MIC [2] | MIC [3] | MIC [4] | MIC [5] | MIC [6] | MIC [7] | MIC [8] | MIC [9] | MIC [10] | MIC [11] | MIC [12] | further results
5 | CC1=C(C(=O)O)N2C(=O)[C@@H](NC(=O)C(C(=O)Oc3ccccc3)c3ccccc3)[C@H]2n2nncc21 (stereo partly drawn) [Compound 44, (3aR,4S) 4,5-Dihydro-5-oxo-8-methyl-4-DL (α-phenoxycarbonylphenyl-acetamido)-3aH-azeto[1,2-a]v-triazolo[3,4-c]pyrimidine-7-carboxylic acid] | > 50 µg/mL | 50 µg/mL (≈ 106 µM) | > 100 µg/mL | > 100 µg/mL | > 100 µg/mL | 100 µg/mL (≈ 211 µM) | 50 µg/mL (≈ 106 µM) | > 100 µg/mL | 10 µg/mL (≈ 21.1 µM) | > 100 µg/mL | 10 µg/mL (≈ 21.1 µM) | 50 µg/mL (≈ 106 µM) | 25 µg/mL (≈ 52.8 µM) | 10 µg/mL (≈ 21.1 µM) | 10 µg/mL (≈ 21.1 µM) | 10 µg/mL (≈ 21.1 µM) | 10 µg/mL (≈ 21.1 µM) | 10 µg/mL (≈ 21.1 µM) | 25 µg/mL (≈ 52.8 µM) | 100 µg/mL (≈ 211 µM) | MIC [21]: 50 µg/mL (≈ 106 µM); MIC [22]: 25 µg/mL (≈ 52.8 µM); MIC [23]: > 100 µg/mL; MIC [24]: 25 µg/mL (≈ 52.8 µM)
